Columns and labels:
[1] = system: chronic unpredictable stress (CUS) model in rats; test: Autonomous movement in CUS model in rats; format: in vivo; details: 7 days
Experimental: (§1) The chronic unpredictable stress model is usually used as a depression model. The experimental method is as follows. Stimulation includes forced swimming (10° C., 6 min), tail clamping (1 cm from the tail tip, 1 min), water deprivation (24 h), fasting (24 h), isolated housing (24 h), tail suspension (1 h), immobility (2 h), high-speed horizontal oscillation (120 times/min, 1 h), foot shock for 45 minutes (mean 1 mA, time course 1 s, once/min). These stressors were randomly scheduled over a one-week period and repeated throughout the 23-day experiment. The non-stress control group was housed under normal conditions. Time: between 9:00 a.m. and 2:00 p.m. Since Day 15, the animals in each group were daily intragastrically administered with the subject medicament and double distilled water based on body weight (blank group and CUS model group) respectively, 60 minutes before the stress. […] Behavior and sleep electroencephalogram analyses were carried out on Day 22-23 of the stress. On Day 21, 60 minutes after the final administration, a sucrose solution intake test was carried out and sleep electroencephalogram was recorded simultaneously. On Day 22, EPM and forced swimming tests were carried out.

[2] = biological target: GSK-3β (Homo sapiens, UniProt P49841); test: GSK-3β activity assay (Z′-LYTE); format: biochemical; details: n = 3; read-out: Mean EC50 in the inhibition of GSK-3β activity
Experimental: The GSK-3β phosphorylation level was determined by using a Z′-LYTE assay (Life Technologies). The assay was performed in a 384-well plate. The wells of the testing plate were divided into blank control wells (without the enzyme), enzyme control wells (without the testing substance), and testing wells (with the enzyme and the testing substance at various concentrations). The inhibition rate of the testing substance is expressed as: inhibition %=(E−S)/(E−B)×100, wherein E is the average emission ratio of enzyme control wells; B is the average emission ratio of blank control wells; S is the emission ratio of the testing sample wells. The median effective concentration of each compound (EC50 μM) was calculated by using the resultant inhibition rate of each sample at various concentrations.

[3] = system: chronic unpredictable stress (CUS) model in rats; test: Sucrose solution preference in CUS model in rats; format: in vivo; details: 7 days
Experimental: as §1

[4] = Serum AST and ALT in mice after 14 days of intragastric administration; format: in vivo
Experimental: Blood was collected from epicanthal, stood at room temperature for about 2 hours, and centrifuged for 12 minutes at 3000 r/min after coagulation. The serum was removed and centrifuged again. Alanine transaminase (ALT) and aspartate transaminase (AST) levels were determined

[5] = system: chronic unpredictable stress (CUS) model in rats; test: Elevated plus-maze (EPM) anxiety test in CUS model in rats; format: in vivo
Experimental: as §1

[6] = system: chronic unpredictable stress (CUS) model in rats; test: Forced swimming test in chronic unpredictable stress (CUS) model in rats; format: in vivo; details: 7 days
Experimental: as §1

[7] = mouse serum, 30 mg/kg/day intragastric, 14 days
[8] = mouse serum, 60 mg/kg/day intragastric, 14 days

GSK-3β, sequence (P49841 whole entry): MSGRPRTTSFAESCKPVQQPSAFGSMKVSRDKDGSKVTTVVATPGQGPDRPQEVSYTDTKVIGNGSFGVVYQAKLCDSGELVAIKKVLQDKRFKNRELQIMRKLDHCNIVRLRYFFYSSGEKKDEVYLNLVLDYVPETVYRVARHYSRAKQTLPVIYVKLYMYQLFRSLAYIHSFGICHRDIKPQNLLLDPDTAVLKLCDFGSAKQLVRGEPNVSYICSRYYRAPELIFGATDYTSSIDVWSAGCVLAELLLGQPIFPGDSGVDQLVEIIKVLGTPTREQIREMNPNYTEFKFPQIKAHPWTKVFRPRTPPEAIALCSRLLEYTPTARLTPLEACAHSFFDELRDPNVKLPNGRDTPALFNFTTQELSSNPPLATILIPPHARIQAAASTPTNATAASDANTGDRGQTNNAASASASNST

| Compound | Autonomous movement Distance ([1]; 7.5 mg/kg intragastric daily) | Autonomous movement Speed ([1]; 7.5 mg/kg intragastric daily) | Autonomous movement Distance ([1]; 15 mg/kg intragastric daily) | Autonomous movement Speed ([1]; 15 mg/kg intragastric daily) | Autonomous movement Distance ([1]; 30 mg/kg intragastric daily) | Autonomous movement Speed ([1]; 30 mg/kg intragastric daily) | EC50 [2] [µM] | Sucrose solution preference ([3]; 7.5 mg/kg intragastric daily) | Sucrose solution preference ([3]; 15 mg/kg intragastric daily) | Sucrose solution preference ([3]; 30 mg/kg intragastric daily) | ALT ([4]; mouse, in vivo, 60 mg/kg/day) [U/L] | AST ([4]; mouse, in vivo, 60 mg/kg/day) [U/L] | Autonomous movement Distance ([1]; 60 mg/kg intragastric daily) [mm] | Autonomous movement Speed ([1]; 60 mg/kg intragastric daily) [mm/second] | Percentage of entries into open arms relative to total entries into arms ([5]; 30 mg/kg intragastric daily) | Percentage of residence time in open arms ([5]; 30 mg/kg intragastric daily) | Percentage of entries into open arms relative to total entries into arms ([5]; 7.5 mg/kg intragastric daily) | Percentage of residence time in open arms ([5]; 7.5 mg/kg intragastric daily) | Percentage of entries into open arms relative to total entries into arms ([5]; 15 mg/kg intragastric daily) | Percentage of residence time in open arms ([5]; 15 mg/kg intragastric daily) | further results |
| --- | --- | --- | --- | --- | --- | --- | --- | --- | --- | --- | --- | --- | --- | --- | --- | --- | --- | --- | --- | --- | --- |
| CCOc1c(OC)c(Br)c2c3c1Oc1cc4c(cc1OC)CCN(C)C4Cc1ccc(cc1)Oc1cc(c(Br)cc1OC)CC3N(C)CC2 (stereo not drawn) [Compound 5, 5,14-dibromo-7-ethoxy fangchinoline] | 13732.42 ± 732.45^##,$$ mm | 45.77 ± 2.64^##,$$ mm/second | 14003.63 ± 737.47^##,$$ mm | 46.68 ± 4.02^##,$$ mm/second | 14561.84 ± 807.52^##,$$ mm | 48.54 ± 5.36^##,$$ mm/second | 1.26 | 84.1 ± 3.3 % | 86.0 ± 3.5^##,$$ % | 91.5 ± 4.2^##,$$ % | 91.7 ± 15.5 | 101.5 ± 18.7 |  |  |  |  |  |  |  |  | melting point: 186 to 188 °C |
| COc1cc2c3cc1Oc1c(OC)c(OC)cc4c1[C@@H](Cc1ccc(O)c(c1)Oc1ccc(cc1)C[C@@H]3N(C)CC2)N(C)CC4 [berbamine, reference compound] |  |  |  |  | 1387.56 ± 584.24 mm | 4.63 ± 1.49 mm/second | > 10 |  |  | 55.05 ± 3.06% |  |  | 1053.45 ± 476.33 | 3.51 ± 1.65 | 38.3 ± 1.9% | 41.0 ± 3.0% |  |  |  |  | Sucrose solution preference ([3]; 60 mg/kg intragastric daily): 49.56 ± 4.27%; Percentage of entries into open arms relative to total entries into arms ([5]; 60 mg/kg intragastric daily): 37.5 ± 1.6%; Percentage of residence time in open arms ([5]; 60 mg/kg intragastric daily): 39.6 ± 4.2% |
| COc1ccc2cc1Oc1ccc(cc1)CC1c3cc(c(OC)cc3CCN1C)Oc1c(OC)c(OC)c(Cl)c3c1C(C2)N(C)CC3 (stereo not drawn) [Compound 1, 5-chloro-7-methoxy fangchinoline] | 7581.17 ± 845.04^##,$$ mm | 25.27 ± 2.38^##,$$ mm/second | 9518.08 ± 704.12^##,$$ mm | 31.73 ± 3.44^##,$$ mm/second | 10347.64 ± 923.01^##,$$ mm | 34.49 ± 3.75^##,$$ mm/second | 3.21 | 69.6 ± 4.6 % | 78.8 ± 4.0^##,$$ % | 81.6 ± 3.7^##,$$ % | 80.9 ± 21.4 | 117.7 ± 16.1 |  |  | 53.9 ± 3.5^##,$$ % | 60.6 ± 3.7^##,$$ % | 41.2 ± 2.3 % | 53.6 ± 4.6^##,$$ % | 46.7 ± 3.4 % | 60.8 ± 4.0^##,$$ % | AST/ALT ([4]; mouse, in vivo, 60 mg/kg/day): 1.45 ± 0.21 |
| COc1ccc2cc1Oc1ccc(cc1)C[C@H]1c3cc(c(OC)cc3CCN1C)Oc1c(OC)c(OC)cc3c1[C@H](C2)N(C)CC3 [tetrandrine, reference compound] | 1369.54 ± 532.47 mm | 4.57 ± 1.85 mm/second | 1124.37 ± 504.85 mm | 3.75 ± 1.98 mm/second | 1027.36 ± 456.76 mm | 3.42 ± 1.33 mm/second | 9.02 | 55.4 ± 3.2% | 52.9 ± 3.7% | 67.7 ± 3.3 % |  |  | 1285.41 ± 401.24 | 4.28 ± 1.56 | 43.8 ± 3.2% | 41.3 ± 3.0% | 38.0 ± 2.3% | 42.1 ± 3.7% | 39.5 ± 3.0% | 40.6 ± 4.8% | Sucrose solution preference ([3]; 60 mg/kg intragastric daily): 70.2 ± 4.6 %; Percentage of entries into open arms relative to total entries into arms ([5]; 60 mg/kg intragastric daily): 46.2 ± 2.9 %; Percentage of residence time in open arms ([5]; 60 mg/kg intragastric daily): 42.8 ± 3.5%; AST activity and the AST/ALT ratio ([4]; mice, 30 mg/kg intragastric, 14 consecutive days): evidently enhanced; change in AST activity, ALT activity and the ratio thereof (AST/ALT) in blood serum ([4]; mice, 60 mg/kg intragastric, 14 consecutive days): all evidently enhanced; ALT [4, 7]: 83.8 ± 15.9 U/L; AST [4, 7]: 204.8 ± 21.8 U/L; AST/ALT [4, 7]: 2.44 ± 0.21; ALT [4, 8]: 113.2 ± 20.6 U/L; AST [4, 8]: 205.6 ± 22.8 U/L; AST/ALT [4, 8]: 1.82 ± 0.26 |
| 5-bromo-7-ethoxy fangchinoline [Compound 4] | 13257.21 ± 756.36^##,$$ mm | 44.19 ± 2.64^##,$$ mm/second | 13615.71 ± 743.43^##,$$ mm | 45.39 ± 4.02^##,$$ mm/second | 14362.26 ± 771.52^##,$$ mm | 47.87 ± 5.36^##,$$ mm/second |  | 79.2 ± 3.4^##,$$ % | 81.5 ± 4.7^##,$$ % | 93.6 ± 3.2^##,$$ % |  |  |  |  | 59.7 ± 5.3^##,$$ % | 68.6 ± 3.2^##,$$ % | 54.2 ± 2.6^##,$ % | 66.2 ± 3.4^##,$$ % | 55.3 ± 4.0^##,$ % | 69.5 ± 4.2^##,$$ % | Forced swimming Immobility time ([6]; 7.5 mg/kg intragastric daily): 134.3 ± 4.4^##,$$ seconds; Forced swimming Immobility time ([6]; 15 mg/kg intragastric daily): 96.1 ± 3.74^##,$$ seconds; Forced swimming Immobility time ([6]; 30 mg/kg intragastric daily): 60.5 ± 5.3^##,$$ seconds |
| COc1ccc2cc1Oc1ccc(cc1)CC1c3cc(c(OC)cc3CCN1C)Oc1c(OC(C)C)c(OC)cc3c1C(C2)N(C)CC3 (stereo not drawn) [Compound 8, 7-isopropoxy fangchinoline] | 9968.41 ± 965.52^##,$$ mm | 33.22 ± 2.64^##,$$ mm/second | 12194.23 ± 887.65^##,$$ mm | 40.64 ± 4.02^##,$$ mm/second | 13053.78 ± 1005.46^##,$$ mm | 43.51 ± 5.36^##,$$ mm/second | 1.35 | 80.5 ± 3.6 % | 84.7 ± 3.2^##,$ % | 90.1 ± 3.8^##,$$ % | 80.1 ± 21.3 | 89.2 ± 16.7 |  |  |  |  |  |  |  |  |  |

Source: patent US9169268B2, “Use of 7-alkoxy fangchinoline compounds in preventing, alleviating and/or treating depression” (Peking University, priority 2012, dated 2015)
